Source: patent US12643871B2, “Aryl formamide compound containing chiral sulfur oxide or salt thereof, preparation method, herbicidal composition and use thereof” (Qingdao Kingagroot Chemical Compound Co., Ltd., priority 2019, dated 2026)

Assays:
Assay type in all cases: in vivo
Leptochloa chinensis = experiment: Comparison experiment (post-emergence) against racemate / S configuration; conditions: Leptochloa chinensis (4.5 leaf), 16DAA
Abutilon theophrasti = experiment: as above; conditions: Abutilon theophrasti (3.5 leaf), 16DAA
Green Setaria viridis = experiment: as above; conditions: for Results of comparison experiment (16DAA), weed control: Setaria viridis (4 leaf)
Digitaria sanguinalis [1] = experiment: as above; conditions: Digitaria sanguinalis (3.5 leaf), 16DAA
Descurainia sophia = experiment: Comparison experiment (post-emergence, Table 7); conditions: Descurainia sophia (12 leaf)
Text: (§1) If there is no clear marker, the post-seedling test conditions are the same as above, and the experimental results are shown in Tables 4-7.

Veronica didyma = experiment: Comparison experiment (post-emergence, Table 7); conditions: Veronica didyma (2 branches)
Text: as §1

Sinapis arvensis = experiment: Comparison experiment (post-emergence, Table 7); conditions: Sinapis arvensis (3.5 leaf)
Text: as §1

Echinochloa crusgali = experiment: Comparison experiment (post-emergence, Table 7); conditions: Echinochloa crusgali (3 leaf)
Text: as §1

Galium aparine = experiment: Comparison experiment (post-emergence, Table 7); conditions: Galium aparine (5 branches)
Text: as §1

Malachium aquaticum = experiment: Comparison experiment (post-emergence, Table 7); conditions: Malachium aquaticum (2 branches)
Text: as §1

Amaranthus retroflexus = experiment: Comparison experiment (post-emergence, Table 7); conditions: Amaranthus retroflexus (6 leaf)
Text: as §1

Capsella bursa-pastoris = experiment: Comparison experiment (post-emergence, Table 7); conditions: Capsella bursa-pastoris (10-11 leaf)
Text: as §1

Alopecurus japonicas = experiment: Comparison experiment (post-emergence) against racemate / S configuration; conditions: Table 6, post-seedling test conditions
Text: (§2) The above growth control rates are fresh weight control rates.
(§3) Experiment on weeding effect in post-emergence stage: monocotyledonous and dicotyledonous weed seeds (Descurainia sophia, Capsella bursa-pastoris, Galium aparine, Stellaria media, Lithospermum arvense, Rorippa indica, Alopecurus aequalis, Beckmannia syzigachne, Sclerochloa dura, Phleum paniculatum, Bromus japonicus, Aegilops tauschii, Phalaris arundinacea, Amaranthus retroflexus, Chenopodiaceae, Commelina communis, Sonchus arvensis, convolvulus arvensis, Cirsium setosum, Solanum nigrum, Acalypha australis, Digitaria sanguinalis, Echinochloa crusgalli, Setaria viridis, Setaria glauca, Leptochloa chinensis, Monochoria vaginalis, Sagittaria trifolia, Scirpus juncoides, Cyperus rotundus, Cyperus iria, Cyperus difformis, Fimbristylis, Portulaca oleracea, Xanthium sibiricum, Pharbitis nil) and major crop seeds (wheat, corn, rice, soybean, cotton, oilseed rape, millet, sorghum, potato, sesame, ricinus) were placed in plastic pots filled with soil, then covered with 0.5-2 cm of soil, allowed to grow in a good greenhouse environment. After 2 weeks of sowing, the test plants were treated in the 2 leaf stage. The tested compounds of the present invention were respectively dissolved in acetone, then added with Tween 80 and 1.5 liter/ha of emulsifiable concentrate of methyl oleate as synergist, diluted with a certain amount of water to obtain a solution with a certain concentration, and sprayed with a spray tower onto the plants. After the application, the plants were cultured for 15 days in the greenhouse, and then the experimental results of the weeding were counted. The doses of the used compounds were 500, 250, 125, 60, 30, 15 g/ha, and the averages were obtained by repeating for three times.
as §1

Digitaria sanguinalis [2] = experiment: as above; conditions: Digitaria sanguinalis, post-emergence, Table 6, post-seedling test conditions
Text: as §2, §3, §1

Corn-Zhengdan 958 = experiment: Comparison experiment (post-emergence, Table 7), crop safety on corn; conditions: Corn-Zhengdan 958 (3.5 leaf)
Text: as §1

CC[S@@+]([O-])c1c(C(F)(F)F)ccc(C(=O)Nc2nnc(C)o2)c1SC [Compound 548]
Results of comparison experiment (16DAA), weed control (Leptochloa chinensis; 3 g/ha): 0%
Results of comparison experiment (16DAA), weed control (Leptochloa chinensis; 6 g/ha): 20%
Results of comparison experiment (16DAA), weed control (Leptochloa chinensis; 12 g/ha): 50%
Results of comparison experiment (16DAA), weed control (Leptochloa chinensis; 24 g/ha): 70%
Results of comparison experiment (16DAA), weed control (Leptochloa chinensis; 48 g/ha): 80%
Results of comparison experiment (16DAA), weed control (Abutilon theophrasti; 3 g/ha): 30%
Results of comparison experiment (16DAA), weed control (Abutilon theophrasti; 6 g/ha): 40%
Results of comparison experiment (16DAA), weed control (Abutilon theophrasti; 12 g/ha): 50%
Results of comparison experiment (16DAA), weed control (Abutilon theophrasti; 24 g/ha): 70%
Results of comparison experiment (16DAA), weed control (Abutilon theophrasti; 48 g/ha): 100%
Results of comparison experiment, Green Setaria viridis (30 g/ha) (Green Setaria viridis; 30 g/ha, Table 6, post-seedling test conditions): 100%
Results of comparison experiment (16DAA), weed control (Green Setaria viridis; 3 g/ha): 20%
Results of comparison experiment (16DAA), weed control (Green Setaria viridis; 6 g/ha): 40%
Results of comparison experiment (16DAA), weed control (Green Setaria viridis; 12 g/ha): 80%
Results of comparison experiment (16DAA), weed control (Green Setaria viridis; 24 g/ha): 100%
Results of comparison experiment (16DAA), weed control (Green Setaria viridis; 48 g/ha): 100%
Results of comparison experiment (16DAA), weed control (Digitaria sanguinalis [1]; 3 g/ha): 40%
Results of comparison experiment (16DAA), weed control (Digitaria sanguinalis [1]; 6 g/ha): 40%
Results of comparison experiment (16DAA), weed control (Digitaria sanguinalis [1]; 12 g/ha): 60%
Results of comparison experiment (16DAA), weed control (Digitaria sanguinalis [1]; 24 g/ha): 80%
Results of comparison experiment (16DAA), weed control (Digitaria sanguinalis [1]; 48 g/ha): 100%
Results of comparison experiment (16DAA), weed control (Descurainia sophia; 3 g/ha): 50%
Results of comparison experiment (16DAA), weed control (Descurainia sophia; 6 g/ha): 70%
Results of comparison experiment (16DAA), weed control (Descurainia sophia; 12 g/ha): 80%
Results of comparison experiment (16DAA), weed control (Descurainia sophia; 24 g/ha): 100%
Results of comparison experiment (16DAA), weed control (Descurainia sophia; 48 g/ha): 100%
Results of comparison experiment (16DAA), weed control (Veronica didyma; 3 g/ha): 10%
Results of comparison experiment (16DAA), weed control (Veronica didyma; 6 g/ha): 20%
Results of comparison experiment (16DAA), weed control (Veronica didyma; 12 g/ha): 20%
Results of comparison experiment (16DAA), weed control (Veronica didyma; 24 g/ha): 50%
Results of comparison experiment (16DAA), weed control (Veronica didyma; 48 g/ha): 70%
Results of comparison experiment (16DAA), weed control (Sinapis arvensis; 3 g/ha): 30%
Results of comparison experiment (16DAA), weed control (Sinapis arvensis; 6 g/ha): 40%
Results of comparison experiment (16DAA), weed control (Sinapis arvensis; 12 g/ha): 50%
Results of comparison experiment (16DAA), weed control (Sinapis arvensis; 24 g/ha): 60%
Results of comparison experiment (16DAA), weed control (Sinapis arvensis; 48 g/ha): 80%
Results of comparison experiment (16DAA), weed control (Echinochloa crusgali; 3 g/ha): 50%
Results of comparison experiment (16DAA), weed control (Echinochloa crusgali; 6 g/ha): 50%
Results of comparison experiment (16DAA), weed control (Echinochloa crusgali; 12 g/ha): 70%
Results of comparison experiment (16DAA), weed control (Echinochloa crusgali; 24 g/ha): 80%
Results of comparison experiment (16DAA), weed control (Echinochloa crusgali; 48 g/ha): 100%
Results of comparison experiment (16DAA), weed control (Galium aparine; 3 g/ha): 10%
Results of comparison experiment (16DAA), weed control (Galium aparine; 6 g/ha): 10%
Results of comparison experiment (16DAA), weed control (Galium aparine; 12 g/ha): 20%
Results of comparison experiment (16DAA), weed control (Galium aparine; 24 g/ha): 20%
Results of comparison experiment (16DAA), weed control (Galium aparine; 48 g/ha): 30%
Results of comparison experiment (16DAA), weed control (Malachium aquaticum; 3 g/ha): 30%
Results of comparison experiment (16DAA), weed control (Malachium aquaticum; 6 g/ha): 50%
Results of comparison experiment (16DAA), weed control (Malachium aquaticum; 12 g/ha): 70%
Results of comparison experiment (16DAA), weed control (Malachium aquaticum; 24 g/ha): 100%
Results of comparison experiment (16DAA), weed control (Malachium aquaticum; 48 g/ha): 100%
Results of comparison experiment (16DAA), weed control (Amaranthus retroflexus; 3 g/ha): 30%
Results of comparison experiment (16DAA), weed control (Amaranthus retroflexus; 6 g/ha): 40%
Results of comparison experiment (16DAA), weed control (Amaranthus retroflexus; 12 g/ha): 60%
Results of comparison experiment (16DAA), weed control (Amaranthus retroflexus; 24 g/ha): 80%
Results of comparison experiment (16DAA), weed control (Amaranthus retroflexus; 48 g/ha): 100%
Results of comparison experiment (16DAA), weed control (Capsella bursa-pastoris; 3 g/ha): 10%
Results of comparison experiment (16DAA), weed control (Capsella bursa-pastoris; 6 g/ha): 30%
Results of comparison experiment (16DAA), weed control (Capsella bursa-pastoris; 12 g/ha): 50%
Results of comparison experiment (16DAA), weed control (Capsella bursa-pastoris; 24 g/ha): 70%
Results of comparison experiment (16DAA), weed control (Capsella bursa-pastoris; 48 g/ha): 100%
Results of comparison experiment, Alopecurus japonicas (120 g/ha) (Alopecurus japonicas): 50%
pest or weed control at 30 g/ha (Digitaria sanguinalis [2]): 100%
Results of comparison experiment (16DAA), crop damage (Corn-Zhengdan 958; 3 g/ha): 0%
Results of comparison experiment (16DAA), crop damage (Corn-Zhengdan 958; 6 g/ha): 0%
Results of comparison experiment (16DAA), crop damage (Corn-Zhengdan 958; 12 g/ha): 0%
Results of comparison experiment (16DAA), crop damage (Corn-Zhengdan 958; 24 g/ha): 0%
Results of comparison experiment (16DAA), crop damage (Corn-Zhengdan 958; 48 g/ha): 0%
